# Experimental data published in EP4775580A1, “COMPOUND, PHARMACEUTICAL COMPOSITION COMPRISING SAME, AND USE THEREOF” (Euregen Biopharma Co., Ltd., priority 2023, dated 2025).
# Read-outs that look alike come from different tables or passages of the source.
# Experiments:
# [1] = Pharmacokinetics in mice after single IV and PO administration (LC-MS/MS); type: in vivo, male ICR mice; conditions: ICR mice
# Protocol: • 1. Objective: This study aimed to characterize the pharmacokinetic properties of selected compounds from the examples of the present invention in male ICR mice following single intravenous (IV) injection and oral (PO) administration using LC-MS/MS methodology. • 2. Experimental Materials: Test compounds were prepared according to the examples of the present invention; male ICR mice were obtained from Shanghai Jihui Laboratory Animal Breeding Co., Ltd. (License No. SCXK(Shanghai)2022-0009). • 3. Experimental Methods: Preparation of 0.5% methylcellulose (pH = 4.91): 5 g of methylcellulose was weighed and dissolved in 1000 mL of purified water, and the pH was adjusted to 4.91 with 100 mM citric acid.
# Preparation of oral formulations: The required amount of test compound was weighed and dissolved in 0.5% methylcellulose (pH = 4.91) solution to obtain a suspension or solution at 3 mg/mL.
# Preparation of intravenous injection formulations: The required amount of test compound was weighed and dissolved in 0.5 mL dimethyl sulfoxide to prepare a 12 mg/mL solution. To 0.25 mL of this solution, 0.5 mL of polyethylene glycol 15-hydroxystearate (Solutol) and 4.25 mL of normal saline were added to obtain a 0.6 mg/mL solution.
# Dosing: Male ICR mice were fasted overnight prior to oral (PO) administration; fasting was not required for the single intravenous (IV) injection group. Food was provided 4 hours post-dosing.
# Sample Collection: Blood was collected from the jugular vein or other suitable veins, with 0.03 mL collected at each time point. Samples were placed in tubes containing dipotassium ethylenediaminetetraacetate and kept on ice prior to centrifugation. Within 1 hour of blood collection, samples were centrifuged at 6800 × g for 6 minutes at 2-8°C and stored at -80°C. Blood sampling time points for intravenous administration were 0.083, 0.25, 0.5, 1, 2, 4, 8, 24, and 32 hours post-dosing. Blood sampling time points for oral administration were 0.25, 0.5, 1, 2, 4, 8, 24, and 32 hours post-dosing.
# [2] = test system: MV-4-11 subcutaneous tumor xenograft; assay: In vivo efficacy in subcutaneous MV-4-11 tumor xenograft model; set-up: species or system female NOD/SCID mice; conditions: oral gavage once daily, tumor volume, Figure 1
# Text: • 1. Objective: To evaluate the in vivo efficacy of test compounds in a subcutaneous MV-4-11 tumor xenograft model in female NOD/SCID mice. • 2. Experimental Materials: The test compound was Compound 3 prepared according to the examples of the present invention; the positive control compound SNDX-5613 was purchased from Chengdu Zhihui Zhongxin Biomedical Co., Ltd.; MV-4-11 cells were purchased from Nanjing Cobioer; NOD/SCID mice were purchased from Beijing Vital River Laboratory Animal Technology Co., Ltd. • 3. Experimental Methods: Female NOD/SCID mice, 6-8 weeks of age, weighing 16-22 g, were used. MV-4-11 cells were cultured in IMDM medium supplemented with 20% fetal bovine serum. Cells in exponential growth phase were harvested, resuspended in phosphate-buffered saline, and prepared as a cell suspension at a density of 1 × 10^7 cells/0.1 mL. Cells were subcutaneously inoculated into the right dorsal neck region of each mouse (1 × 10^7 cells/mouse) with 50% Matrigel. When the mean tumor volume reached approximately 50-100 mm^3, mice were randomized and treatment was initiated by oral gavage administration once daily. Tumor diameters were measured twice weekly using digital calipers. Tumor volume was calculated using the formula: V = 0.5 × a × b^2, where a and b represent the longest and shortest tumor diameters, respectively.
# OCI-AML-3 cells = assay: Antiproliferative activity, CellTiter-Glo, 7 days (Test Example 2), OCI-AML-3; type: cell-based; conditions: Homo sapiens, 168 h, 7 days incubation, read-out: OCI-AML3 IC50
# Text: [0134] 1. Experimental Principle: MV-4-11, Molm-13, and OCI-AML-3 cells are human hematologic tumor cell lines harboring the Menin-MLL fusion. HL-60 is a wild-type human hematologic tumor cell line without Menin-MLL fusion. […] 2. Experimental Materials: MV-4-11, Molm-13, OCI-AML-3, and HL-60 cells were all purchased from Cobioer; CellTiter-Glo® was purchased from Promega (Cat. #G7571); RPMI-1640 was purchased from Viva Cell (Cat. #C3010-0500); IMDM was purchased from Viva Cell (Cat. #C3040-0500); fetal bovine serum (FBS) was purchased from Biosera (Cat. #FB-1058/500); penicillin-streptomycin was purchased from BasalMedia (Cat. #S110JV); 0.25% Trypsin-EDTA was purchased from BasalMedia (Cat. #S310KJ); dimethyl sulfoxide (DMSO) was purchased from Sinopharm (Cat. #30072418); 96-well plates were purchased from Corning (Cat. #3610); incubator was obtained from PHCbi (Model: MCO-18AC); inverted microscope was obtained from Mingmei (Cat. #MI52-0); automated cell counter was obtained from BodBoge (Model: JSY-SC-031N); microplate reader was obtained from PerkinElmer (Model: Envision); data processing software: GraphPad Prism 8.0. 3. […] After incubation at room temperature for 10 minutes, luminescence values were read using the EnVision microplate reader, and IC50 values were calculated using GraphPad Prism 8.0 software. […]
smiles,measurement,setting,value
CCN(C(=O)c1cc(F)ccc1N1CCN([C@@H]2CCN([C@H](CCCN(C)CCOC)C(C)C)C2)c2ncncc21)C(C)C [Example 3],PO F,[1]; PO 30 mg/kg vs IV 3 mg/kg,25.6%
same,AUC(0-t),"[1]; mouse, in vivo, IV 3 mg/kg, read-out: IV AUC(0-t)",429 ng·h/mL
same,clearance,"[1]; mouse, in vivo, IV 3 mg/kg, read-out: IV CL",104 mL/min/kg
same,Cmax,"[1]; mouse, in vivo, IV 3 mg/kg, read-out: IV Cmax",418 ng/mL
same,Vd,"[1]; mouse, in vivo, IV 3 mg/kg, read-out: IV Vss",65.1 L/kg
same,half-life,"[1]; mouse, in vivo, IV 3 mg/kg, read-out: IV t1/2 (converted)",10.9 h
same,AUC(0-t),"[1]; mouse, in vivo, PO 30 mg/kg, 0.5% methylcellulose (pH = 4.91), read-out: PO AUC(0-t)",1100 ng·h/mL
same,Cmax,"[1]; mouse, in vivo, PO 30 mg/kg, 0.5% methylcellulose (pH = 4.91), read-out: PO Cmax",293 ng/mL
same,half-life,"[1]; mouse, in vivo, PO 30 mg/kg, 0.5% methylcellulose (pH = 4.91), read-out: PO t1/2 (converted)",6.49 h
same,efficacy in MV-4-11 subcutaneous tumor xenograft model,[2],superior efficacy compared to the positive control SNDX-5613
same,IC50,OCI-AML-3 cells,0.103 µM
